The results in this text go back to patent US20220315578A1, “BRD9 BIFUNCTIONAL DEGRADERS AND THEIR METHODS OF USE” (NOVARTIS AG, priority 2019, published 2022).

The target of the experiment is T1, BRD9-GFP (Homo sapiens, UniProt Q9H8M2).
T1 construct: CHYSEL (2A cis-acting hydrolase element) remnant after GFP; mCherry is split off as a separate protein (C); expressed in transfected cells; host or cells: HEK293A cells (Invitrogen R70507), lentiviral transduction with pLenti6-BRD9-GFP-CHYSEL-mCherry, blasticidin selection
T1 sequence (Q9H8M2 1-597): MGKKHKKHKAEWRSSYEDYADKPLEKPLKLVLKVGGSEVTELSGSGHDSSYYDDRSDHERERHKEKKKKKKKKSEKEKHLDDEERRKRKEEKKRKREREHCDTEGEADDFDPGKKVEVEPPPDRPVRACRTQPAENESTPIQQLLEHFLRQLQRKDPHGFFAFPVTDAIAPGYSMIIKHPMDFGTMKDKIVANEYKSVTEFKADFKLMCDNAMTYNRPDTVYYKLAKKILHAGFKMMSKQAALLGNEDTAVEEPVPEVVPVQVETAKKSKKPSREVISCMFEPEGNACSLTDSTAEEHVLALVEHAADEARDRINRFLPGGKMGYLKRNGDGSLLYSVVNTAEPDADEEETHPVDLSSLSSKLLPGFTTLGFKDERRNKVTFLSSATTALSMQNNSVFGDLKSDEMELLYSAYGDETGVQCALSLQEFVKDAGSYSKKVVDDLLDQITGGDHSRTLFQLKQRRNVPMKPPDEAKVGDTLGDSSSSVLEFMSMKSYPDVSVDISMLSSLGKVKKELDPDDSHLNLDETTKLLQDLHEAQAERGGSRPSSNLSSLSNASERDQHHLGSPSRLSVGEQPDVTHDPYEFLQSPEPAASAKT
As to the kind of experiment: BRD9-GFP protein abundance flow cytometry assay in HEK293A cells. Particulars: HEK293A-BRD9-GFP-CHYSEL-mCherry cells; for BRD9 Deg Amax %: 24 h, % protein remaining at the concentration at which maximum degradation is seen; for DC50: 24 h at 37° C., 10-point 1:3 dilution, concentration at which 50% maximal degradation was observed. Type of experiment: cell-based. The procedure, abridged:
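HEK293A cells stably express bicistronic BRD9-GFP-CHYSEL-mCherry and received 24 h treatment at 37° C with a 10-point, 3-fold dilution series from […], in 0.1% DMSO and duplicate. Median GFP/mCherry ratio of 5,000 single cells by flow cytometry, normalized to mCherry-only cells (0%) and DMSO (100%), gave DC50 and Amax (% protein remaining).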

Regarding `COc1cc(-c2cn(C)c(=O)c3cnccc23)c(OC)cc1CCN1CCC(OC2CCN(C(=O)c3ccc(Cl)c(N4CCC(=O)NC4=O)c3)CC2)CC1` [Compound A39, 1-(2-Chloro-5-(4-((1-(2,5-dimethoxy-4-(2-methyl-1-oxo-1,2-dihydro-2,7-naphthyridin-4-yl)phenethyl)piperidin-4-yl)oxy)piperidine-1-carbonyl)phenyl)dihydropyrimidine-2,4(1H,3H)-dione], the “BRD9 Deg Amax %” value is reported as 16.72% and the DC50 came to 21 nM.

For `COc1cc(-c2cn(C)c(=O)c3cnccc23)cc(OC)c1CCN1CCC(OC2CCN(C(=O)c3cccc(N4CCC(=O)NC4=O)c3)CC2)CC1` [Compound A40, 1-(3-(4-((1-(2,6-Dimethoxy-4-(2-methyl-1-oxo-1,2-dihydro-2,7-naphthyridin-4-yl)phenethyl)piperidin-4-yl)oxy)piperidine-1-carbonyl)phenyl)dihydropyrimidine-2,4(1H,3H)-dione], the “BRD9 Deg Amax %” value worked out at 14.20% and half-maximal degradation (DC50) was put at 4 nM.

On to `COc1cc(-c2cn(C)c(=O)c3cnccc23)c(OC)cc1CCN1CCC(OC2CCN(C(=O)c3ccc(OC)c(N4CCC(=O)NC4=O)c3)CC2)CC1` [Compound A41, 1-(5-(4-((1-(2,5-Dimethoxy-4-(2-methyl-1-oxo-1,2-dihydro-2,7-naphthyridin-4-yl)phenethyl)piperidin-4-yl)oxy)piperidine-1-carbonyl)-2-methoxyphenyl)dihydropyrimidine-2,4(1H,3H)-dione], for which the “BRD9 Deg Amax %” value turned out to be 13.54% and half-maximal degradation (DC50) was put at 60 nM.

With `COc1ccc(C(=O)N2CCC(OC3CCN(Cc4c(OC)cc(-c5cn(C)c(=O)c6cnccc56)cc4OC)CC3)CC2)cc1N1CCC(=O)NC1=O` [Compound A42, 1-(5-(4-((1-(2,6-Dimethoxy-4-(2-methyl-1-oxo-1,2-dihydro-2,7-naphthyridin-4-yl)benzyl)piperidin-4-yl)oxy)piperidine-1-carbonyl)-2-methoxyphenyl)dihydropyrimidine-2,4(1H,3H)-dione], the “BRD9 Deg Amax %” value turned out to be 13.53% and it took 98 nM to reach half-maximal degradation (DC50).

Regarding `CCCn1cc(-c2cc(OC)c(CCN3CCC(OC4CCN(C(=O)c5ccc(Cl)c(N6CCC(=O)NC6=O)c5)CC4)CC3)c(OC)c2)cc(C)c1=O` [Compound B1, 1-(2-Chloro-5-(4-((1-(2,6-dimethoxy-4-(5-methyl-6-oxo-1-propyl-1,6-dihydropyridin-3-yl)phenethyl)piperidin-4-yl)oxy)piperidine-1-carbonyl)phenyl)dihydropyrimidine-2,4(1H,3H)-dione], the “BRD9 Deg Amax %” value is recorded as 11.90% and the DC50 was found to be 2 nM.

Take `CCCn1cc(-c2cc(OC)c(CCN3CCC(OC4CCN(C(=O)c5ccc(Cl)c(N6CCC(=O)NC6=O)c5)CC4)CC3)c(OC)c2)c(C)c(C)c1=O` [Compound B2, 1-(2-Chloro-5-(4-(1-(4-(4,5-dimethyl-6-oxo-1-propyl-1,6-dihydropyridin-3-yl)-2,6-dimethoxyphenethyl)piperidin-4-yloxy)piperidine-1-carbonyl)phenyl)dihydropyrimidine-2,4(1H,3H)-dione]: the “BRD9 Deg Amax %” value came to 13.73% and the 50% degradation concentration (DC50) turned out to be 2 nM.

`CCCCn1cc(-c2cc(OC)c(CN3CCC(OC4CCN(C(=O)c5ccc(OC)c(N6CCC(=O)NC6=O)c5)CC4)CC3)cc2OC)c2ccncc2c1=O` [Compound B3, 1-(5-(4-((1-(4-(2-butyl-1-oxo-1,2-dihydro-2,7-naphthyridin-4-yl)-2,5-dimethoxybenzyl)piperidin-4-yl)oxy)piperidine-1-carbonyl)-2-methoxyphenyl)dihydropyrimidine-2,4(1H,3H)-dione]: the “BRD9 Deg Amax %” value came out at 10.95% and the DC50 amounted to 27 nM.

For the molecule `CCCCn1cc(-c2cc(OC)c(CCN3CCC(OC4CCN(C(=O)c5ccc(Cl)c(N6CCC(=O)NC6=O)c5)CC4)CC3)c(OC)c2)c2ccncc2c1=O` [Compound B4, 1-(5-(4-((1-(4-(2-butyl-1-oxo-1,2-dihydro-2,7-naphthyridin-4-yl)-2,6-dimethoxyphenethyl)piperidin-4-yl)oxy)piperidine-1-carbonyl)-2-chlorophenyl)dihydropyrimidine-2,4(1H,3H)-dione], the “BRD9 Deg Amax %” value came out at 14.82% and the DC50 came out at 3 nM.

Take `CCCCn1cc(-c2ccc(OC3CCN(CC4CCN(C(=O)c5ccc(OC)c(N6CCC(=O)NC6=O)c5)CC4)CC3)c(OC)c2)c2ccncc2c1=O` [Compound B5, 1-(5-(4-((4-(4-(2-butyl-1-oxo-1,2-dihydro-2,7-naphthyridin-4-yl)-2-methoxyphenoxy)piperidin-1-yl)methyl)piperidine-1-carbonyl)-2-methoxyphenyl)dihydropyrimidine-2,4(1H,3H)-dione]: the “BRD9 Deg Amax %” value is on record as 13.14% and the DC50 worked out at 4 nM.

As to `CCCCn1cc(-c2ccc(OC3CCN(CC4CCN(C(=O)c5ccc(Cl)c(N6CCC(=O)NC6=O)c5)CC4)CC3)c(OC)c2)c2ccncc2c1=O` [Compound B6, 1-(5-(4-((4-(4-(2-butyl-1-oxo-1,2-dihydro-2,7-naphthyridin-4-yl)-2-methoxyphenoxy)piperidin-1-yl)methyl)piperidine-1-carbonyl)-2-chlorophenyl)dihydropyrimidine-2,4(1H,3H)-dione], the “BRD9 Deg Amax %” value is recorded as 16.75% and it took 1 nM to reach half-maximal degradation (DC50).

`CCCCn1cc(-c2cc(OC)c(OCC3CCN(CC4CCN(C(=O)c5ccc(OC)c(N6CCC(=O)NC6=O)c5)CC4)CC3)c(OC)c2)c2ccncc2c1=O` [Compound B7, 1-(5-(4-((4-((4-(2-butyl-1-oxo-1,2-dihydro-2,7-naphthyridin-4-yl)-2,6-dimethoxyphenoxy)methyl)piperidin-1-yl)methyl)piperidine-1-carbonyl)-2-methoxyphenyl)dihydropyrimidine-2,4(1H,3H)-dione]: the “BRD9 Deg Amax %” value was 17.54% and the DC50 was determined as 7 nM.

With `CCCCn1cc(-c2cc(OC)c(OCC3CCN(CC4CCN(C(=O)c5ccc(Cl)c(N6CCC(=O)NC6=O)c5)CC4)CC3)c(OC)c2)c2ccncc2c1=O` [Compound B8, 1-(5-(4-((4-((4-(2-butyl-1-oxo-1,2-dihydro-2,7-naphthyridin-4-yl)-2,6-dimethoxyphenoxy)methyl)piperidin-1-yl)methyl)piperidine-1-carbonyl)-2-chlorophenyl)dihydropyrimidine-2,4(1H,3H)-dione], the “BRD9 Deg Amax %” value is given as 17.89% and the DC50 amounted to 3 nM.

Regarding `CCCCn1cc(-c2cc(OC)c(OC3CCN(CC4CCN(C(=O)c5ccc(Cl)c(N6CCC(=O)NC6=O)c5)CC4)CC3)c(OC)c2)c2ccncc2c1=O` [Compound B9, 1-(5-(4-((4-(4-(2-butyl-1-oxo-1,2-dihydro-2,7-naphthyridin-4-yl)-2,6-dimethoxyphenoxy)piperidin-1-yl)methyl)piperidine-1-carbonyl)-2-chlorophenyl)dihydropyrimidine-2,4(1H,3H)-dione], the “BRD9 Deg Amax %” value turned out to be 14.33% and the DC50 turned out to be 1 nM.

Consider `CCCCn1cc(-c2cc(OC)c(OC3CCN(CC4CCN(C(=O)c5ccc(OC)c(N6CCC(=O)NC6=O)c5)CC4)CC3)c(OC)c2)c2ccncc2c1=O` [Compound B10, 1-(5-(4-((4-(4-(2-butyl-1-oxo-1,2-dihydro-2,7-naphthyridin-4-yl)-2,6-dimethoxyphenoxy)piperidin-1-yl)methyl)piperidine-1-carbonyl)-2-methoxyphenyl)dihydropyrimidine-2,4(1H,3H)-dione], for which the “BRD9 Deg Amax %” value came to 16.55% and half-maximal degradation (DC50) was put at 6 nM.

With `COc1cc(-c2cn(C)c(=O)c3cnccc23)c(OC)cc1CN1CCC(OC2CCN(CCn3cccc(CN4CCC(=O)NC4=O)c3=O)CC2)CC1` [Compound C1, 1-((1-(2-(4-(1-(2,5-Dimethoxy-4-(2-methyl-1-oxo-1,2-dihydro-2,7-naphthyridin-4-yl)benzyl)piperidin-4-yloxy)piperidin-1-yl)ethyl)-2-oxo-1,2-dihydropyridin-3-yl)methyl)dihydropyrimidine-2,4(1H,3H)-dione], the “BRD9 Deg Amax %” value is 13.59% and the DC50 worked out at 29 nM.

As to `COc1cc(-c2cn(C)c(=O)c3cnccc23)cc(OC)c1CN1CCC(OC2CCN(CCn3cccc(CN4CCC(=O)NC4=O)c3=O)CC2)CC1` [Compound C2, 1-((1-(2-(4-((1-(2,6-dimethoxy-4-(2-methyl-1-oxo-1,2-dihydro-2,7-naphthyridin-4-yl)benzyl)piperidin-4-yl)oxy)piperidin-1-yl)ethyl)-2-oxo-1,2-dihydropyridin-3-yl)methyl)dihydropyrimidine-2,4(1H,3H)-dione], the “BRD9 Deg Amax %” value was 11.95% and the DC50 was determined as 29 nM.

What is called DC50 is the concentration giving 50% degradation. A high value points to a less potent degrader.
